Measured values as given in US20210353749A1, “GUANABENZ AS AN ADJUVANT FOR IMMUNOTHERAPY” (UNIVERSITÉ CATHOLIQUE DE LOUVAIN, priority 2018, published 2021).

Tests used:
[1] = test system: Mouse TCRP1A CD8+ T cells; assay: IFNγ secretion assay (ELISA), mouse T cells; type: cell-based; details: guanabenz 10, 20 or 40 μM, 16 h to 24 h, co-culture with L1210-P1A-B7.1 target cells; FIG. 1B
Description: Mouse TCRP1A CD8^+ T cells: P1A-specific (TCRP1A) CD8^+ T cells were isolated from spleens and lymph nodes of TCRP1A mice using anti-mouse CD8a (Ly-2) MicroBeads (Miltenyi Biotec). IFNγ secretion assay: CD8^+ T cells were plated at 50,000 cells per well in a 96 U plate with different concentration of guanabenz in full medium supplemented with IL2 and incubated at 37° C. overnight prior to their use in the assay on the next day. On the day of the assay, the culture supernatant was removed from the cells and the cells were washed once with complete medium to remove the drug completely. The target cells L1210-P1A-B7.1 or T2 cells loaded with WT1126-134 peptide were added to the wells at a ratio of 1:1. Control wells containing either only T cells or […] were also included for each plate. The plate was then incubated at 37° C. overnight. At the end of the incubation period the supernatant was collected and the amount of IFNγ was measured by ELISA according to manufacturer's instruction (R&D). T cells were incubated with guanabenz (10, 20, or 40 μM) for 16 h to 24 h as indicated. Mice received a daily intra-peritoneal injection of guanabenz (5 mg/kg) or vehicle (PBS) from the day of randomization (and the day of ACT when applicable) until the day of sacrifice.

B16F10 melanoma tumors = assay: B16F10 transplanted melanoma model; type: in vivo, mouse; details: guanabenz alone, 2.5 mg/kg i.p. daily from 7 days after inoculation, vs PBS and isotype; FIG. 9
Description: Gender and age matched CD57BL/6 wild-type mice were used in the B16F10 transplanted melanoma model.
Gender-matched, 7-9 weeks old CD57BL/6 wild-type mice were subcutaneously injected with 1 million of B16F10 tumor cells. Mice were randomized based on the tumor size one week after the injection of tumor cells. 7 days after tumor inoculation, daily injections of guanabenz (2.5 mg/kg, i.p.) or vehicle (PBS, i.p.) were administered to the mice. Mice then received 4 injections (intraperitoneally also referred to as i.p.) of a dose of 200 μg/mouse anti-PD-1 antibody (BioXcell, clone RMP1-14) or RatIgG2a isotype (clone 2A3, Bio-X-Cell) at 3-day intervals starting 1 day after guanabenz or vehicle administration.

[2] = test system: T429.11 transplanted tumor; assay: TiRP-derived T429.11 transplanted melanoma model; type: in vivo, mouse
Description: TiRP-derived T429.11 transplanted melanoma model: T429.11 clone was derived from an induced Amela TiRP tumor referred to as T429. It was cloned from the T429 induced melanoma primary tumor line. Two million of T429.11 tumor cells were injected subcutaneously into recipient mice for tumor establishment (Zhu et al, Nat Commun 2017, 10; 8(1):1404).
T cells were incubated with guanabenz (10, 20, or 40 μM) for 16 h to 24 h as indicated. Mice received a daily intra-peritoneal injection of guanabenz (5 mg/kg) or vehicle (PBS) from the day of randomization (and the day of ACT when applicable) until the day of sacrifice.
The T429.11 transplanted melanoma model was previously shown not to respond to anti-PD-1 and anti-CTLA4 therapy (Zhu et al., Nature communications. Nov. 10 2017; 8(1):1404). T429.11 transplanted tumor bearing mice received daily injections of guanabenz (5 mg/kg, i.p.) or vehicle (PBS, i.p.) from the day when the tumor size was around 1000 mm^3 (day 1) until the day of sacrifice (day 6). […] As shown on FIG. 2B, the decreased tumor growth was accompanied with an increased tumor infiltration of CD8^+ T cells.

[3] = test system: P1A-antigen specific CD8+ T cells; assay: Immunization with irradiated L1210-P1A-B7.1 tumor cells; type: in vivo, DBA/2 mice; details: 100 μg (5 mg/kg) guanabenz with vaccine, vs negative control and immunization alone
Description: Immunization with irradiated L1210-P1A-B7.1 tumor cells: DBA/2 mice received a vaccine consisting of 1 million irradiated L1210-P1A-B7.1 cells expressing the P1A antigen either alone or with 100 μg (5 mg/kg) guanabenz. When administered, guanabenz was given 1 hour before the immunization and daily after the immunization.
Tetramer staining: one week after the immunization, the spleen of each mouse was collected. Isolated splenocytes from the immunized mice were cultured and restimulated with L1210-P1A-B7.1 cells at a ratio of 1:1. Four days after restimulation, P1A-antigen specific CD8^+ T cells were stained with PE-conjugated P1A tetramer and APC-conjugated anti-CD8 antibody.
Interferon gamma secretion: one week after the immunization, the spleen of each mouse was collected. Splenocytes from the immunized mice were restimulated with L1210-P1A-B7.1 cells at a ratio of 1:1. Four days after restimulation, the splenocytes were collected and plated at 50,000 cells per well in 96 U plate. L1210-P1A-B7.1 cells were added to each well as target cells at a ratio of 1:1. The plate was then incubated at 37° C. overnight. At the end of the incubation, the supernatant from the cells were collected and the amount of secreted IFNγ was measured by ELISA according to the manufacturer's instruction (R&D). […]

NC(N)=N/N=C/c1c(Cl)cccc1Cl [guanabenz, 2-[(E)-(2,6-dichlorophenyl)methylideneamino]guanidine] was tested, and the “secretion of IFNγ (ELISA)” value [1] was “increased”, the “growth of B16F10 melanoma tumors” value (B16F10 melanoma tumors) was “did significantly reduce” and the tumor growth ([2]; 5 mg/kg i.p. daily from tumor size around 1000 mm^3 (day 1) to day 6, vs vehicle, FIG. 2A) was “inhibited tumor growth”. The “tumor infiltration of CD8+ T cells (FACS)” value ([2]; 5 mg/kg i.p. daily, day of sacrifice (day 6), vs vehicle, FIG. 2B) was “increased”, the “splenocyte IFNγ secretion (ELISA)” value ([3]; activation with L1210-P1A-B7.1 cells, FIG. 7B) was “significant increase” and the “percentage of P1A-antigen specific CD8+ T cells among total CD8+ T cells after restimulation with the P1A-antigen” value ([3]; splenocytes one week after immunization, FIG. 7A) was “significant increase”.
